2 compounds from patent publication US11939609B2, “Rewiring aberrant cancer signaling to a therapeutic effector response with a synthetic two-component system” (The Board of Trustees of the Leland Stanford Junior …, priority 2017, dated 2024) can be followed below.

One series has as its system MRC5 cells. Nature of the series: Caspase-3 activity assay (fluorescent indicator imaging). Format: cell-based. Particulars: non-cancerous lung fibroblast line. The text has this: (§1) To package lentivirus, HEK293T cells at ˜70% confluency were transfected with psPAX2, pMD2.G, and pLL3.7 plasmids using Lipofectamine 2000 (Life Technologies). Two days following transfection, viral supernatant was filtered with a 0.45 μm PES filter before using to infect target cells. rAAVdj-CAG-RASER1C-mCardinal-BID and rAAVdj-mCardinal were produced at the Stanford Gene Vector and Virus Core (Stanford University). Virus infected cells were neither sorted nor purified prior to obtaining the results shown, to remain close to the actual use scenario.
(§2) NucView 488 Caspase-3 substrate (Biotium) and Hoechst 33342 (Invitrogen) were diluted into culture media to final concentrations of 1 μM each. After 1 h of incubation, cells were imaged with the Axiovert 200M with a 10×0.5-NA air objective.

The test system of another series is MCF10A cells. The description is as above. Format: cell-based. Particulars: non-cancerous breast epithelium line.
Source text: as §1, §2

For series [1], the system named is BT-474, H1975, MCF-7, MCF-10A and MRC-5 cells. To be noted: 10 μM carboplatin + 10 μM paclitaxel; 10 μM lapatinib.

Turning to `CC(=O)O[C@H]1C(=O)[C@@]2(C)[C@H]([C@H](OC(=O)c3ccccc3)[C@]3(O)C[C@H](OC(=O)[C@H](O)[C@@H](NC(=O)c4ccccc4)c4ccccc4)C(C)=C1C3(C)C)[C@]1(OC(C)=O)CO[C@@H]1C[C@@H]2O` [paclitaxel], the “apoptosis (caspase-3 fluorescent indicator)” value in the series with MRC5 cells and with MCF10A cells was “apoptosis is induced by paclitaxel” in each case.

For the compound `CS(=O)(=O)CCNCc1ccc(-c2ccc3ncnc(Nc4ccc(OCc5cccc(F)c5)c(Cl)c4)c3c2)o1` [Lapatinib, lapatinib], the “cytotoxicity across ErbB-hyperactive and ErbB-normal cell lines” value in series [1] was “varied by cell line, but did not consistently correlate with ErbB status”.
